Measurements as given in US20240174618A1, “SUBSTITUTED (2-HETEROARYLOXYPHENYL)SULFONATES, SALTS THEREOF AND THEIR USE AS HERBICIDAL AGENTS” (Bayer Aktiengesellschaft, priority 2021, published 2024).

How the values were obtained:
Assay type in all cases: in vivo
[1] = test system: Setaria viridis (SETVI); assay: E. Herbicidal post-emergence efficacy, SETVI
Description: Seeds of monocotyledonous and dicotyledonous weeds and crop plants were placed in sandy loam in plastic or organic planting pots, covered with soil and cultivated in a greenhouse under controlled growth conditions. 2 to 3 weeks after sowing, the test plants were treated at the one-leaf stage. The compounds of the invention, formulated in the form of wettable powders (WP) or as emulsion concentrates (EC), were then sprayed onto the green parts of the plants as aqueous suspension or emulsion with addition of 0.5% additive at a water application rate of 600 l/ha (converted). After the test plants had been kept in the greenhouse under optimum growth conditions for about 3 weeks, the activity of the preparations was rated visually in comparison to untreated controls.
For example, • 100% efficacy=plants have died, • 0% action=like untreated control plants.
Tables E1a to E12b below show the effects of selected compounds of the general formula (I) according to table 1 on various harmful plants at an application rate corresponding to 320 g/ha or less, which were obtained by the experimental procedure mentioned above.

[2] = test system: Abutilon theophrasti (ABUTH); assay: A. Herbicidal pre-emergence efficacy, ABUTH; details: scored visually after about 3 weeks vs untreated controls
Method in brief: (§1)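 Pre-emergence soil-surface spray in sandy loam pots, WP/EC in water plus 0.5% additive, 600 L/ha. Visual % damage rating after about 3 weeks in greenhouse vs. untreated; 0% = control-like, 100% = dead plants. Rates up to 1280 g/ha.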

[3] = test system: Amaranthus retroflexus (AMARE); assay: E. Herbicidal post-emergence efficacy, AMARE
Method in brief: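 Greenhouse post-emergence spray, one-leaf stage (2–3 wk after sowing, sandy loam); WP/EC formulation, aqueous + 0.5% additive, 600 l/ha water; rates 320 g/ha or less. Visual rating ~3 wk later vs untreated; 0% = control-like, 100% = dead.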

[4] = test system: Setaria viridis (SETVI); assay: C. Herbicidal pre-emergence efficacy, SETVI; details: scored after about 3 weeks
Method in brief: (§2)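 Pre-emergence test: formulated compounds sprayed as aqueous suspension or emulsion with 0.5% additive at 600 l/ha onto soil covering sown seeds, at rates corresponding to 320 g/ha or less. After about 3 weeks in greenhouse, efficacy scored visually as percent versus untreated controls (100% = plants dead).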

[5] = test system: Alopecurus myosuroides (ALOMY); assay: C. Herbicidal pre-emergence efficacy, ALOMY; details: scored after about 3 weeks
From the text: Seeds of monocotyledonous and dicotyledonous weed plants and crop plants were placed in plastic or organic planting pots and covered with soil. The compounds of the invention, formulated in the form of wettable powders (WP) or as emulsion concentrates (EC), were then applied to the surface of the covering soil as aqueous suspension or emulsion with addition of 0.5% additive at a water application rate equivalent to 600 l/ha (converted). After the treatment, the pots were placed in a greenhouse and kept under good growth conditions for the test plants. After about 3 weeks, the efficacy of the preparations was scored visually in comparison with untreated controls as percentages. For example, • 100% efficacy=plants have died, • 0% efficacy=like untreated control plants.
Tables C1a to C14b below show the effects of selected compounds of the general formula (I) according to table 1 on various harmful plants at an application rate corresponding to 320 g/ha or less, which were obtained by the experimental procedure mentioned above.

[6] = test system: Kochia scoparia (KCHSC); assay: C. Herbicidal pre-emergence efficacy, KCHSC
Method in brief: as §2

[7] = test system: Digitaria sanguinalis (DIGSA); assay: A. Herbicidal pre-emergence efficacy, DIGSA; details: scored visually after about 3 weeks vs untreated controls
Method in brief: as §1

[8] = test system: Kochia scoparia (KCHSC); assay: B. Herbicidal post-emergence efficacy, KCHSC; details: for Post-emergence efficacy against KCHSC in %: rated visually after about 3 weeks; for Post-emergence efficacy against KCHSC: 1280 g/ha
Method in brief: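 Post-emergence foliar spray, at application rates of 1280 g/ha or less, on one-leaf-stage plants 2–3 weeks post-sowing, using aqueous WP or EC suspensions with 0.5% additive at 600 L/ha. Visual percent efficacy relative to untreated plants scored roughly 3 weeks later in the greenhouse.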

Structure (SMILES)	Post-emergence efficacy against SETVI in % ([1]; application rate 80 g/ha)	Post-emergence efficacy against SETVI in % ([1]; application rate 320 g/ha)	Pre-emergence efficacy against ABUTH ([2]; 80 g/ha)	Pre-emergence efficacy against ABUTH ([2]; 320 g/ha)	Pre-emergence efficacy against ABUTH ([2]; 1280 g/ha)	Post-emergence efficacy against AMARE in % ([3]; application rate 80 g/ha)	Post-emergence efficacy against AMARE in % ([3]; application rate 320 g/ha)	Pre-emergence efficacy against SETVI ([4]; 80 g/ha)	Pre-emergence efficacy against SETVI ([4]; 320 g/ha)	Pre-emergence efficacy against ALOMY ([5]; 320 g/ha)	Pre-emergence efficacy against KCHSC in % ([6]; application rate 80 g/ha)	Pre-emergence efficacy against KCHSC in % ([6]; application rate 320 g/ha)	Pre-emergence efficacy against DIGSA ([7]; 80 g/ha)	Pre-emergence efficacy against DIGSA ([7]; 320 g/ha)	Pre-emergence efficacy against DIGSA ([7]; 1280 g/ha)	Post-emergence efficacy against KCHSC in % ([8]; 80 g/ha)	Post-emergence efficacy against KCHSC in % ([8]; 320 g/ha)	Post-emergence efficacy against KCHSC [8]	Pre-emergence efficacy against ALOMY ([5]; 80 g/ha)
O=S(=O)(CCC(F)(F)F)Oc1c(F)cccc1Oc1ncc(Br)cn1 [Example I-40]	100%	100%	100%	100%	100%	100%	100%	100%	100%	100%	100%	100%	100%	100%	100%	90%	90%	90%	–
O=S(=O)(CCCC(F)F)Oc1c(F)cccc1Oc1ncc(Cl)cn1 [Example I-56]	80%	100%	100%	100%	100%	100%	100%	100%	100%	100%	100%	100%	100%	100%	100%	90%	90%	90%	100%
O=S(=O)(CCCCl)Oc1c(F)cccc1Oc1ncc(Cl)cn1 [Example I-14]	100%	100%	100%	100%	100%	100%	100%	100%	100%	100%	–	–	100%	100%	100%	100%	100%	100%	90%
C=CCCS(=O)(=O)Oc1c(F)cccc1Oc1ncc(Cl)cn1 [Example I-50]	–	90%	90%	100%	100%	100%	100%	100%	100%	90%	90%	100%	90%	90%	100%	–	–	90%	–
CC(C)CCS(=O)(=O)Oc1ccccc1Oc1ncc(Cl)cn1 [Example I-25]	–	100%	–	–	100%	–	90%	80%	100%	80%	–	–	90%	100%	100%	90%	100%	100%	–
O=S(=O)(CCC(F)=C(F)F)Oc1c(F)cccc1Oc1ncc(Cl)cn1 [Example I-70]	100%	100%	–	–	–	100%	100%	90%	100%	100%	100%	100%	–	–	–	–	–	–	–
CCCS(=O)(=O)Oc1ccccc1Oc1ncc(Cl)cn1 [Example I-3]	–	90%	100%	100%	100%	–	100%	100%	100%	100%	–	–	–	–	–	90%	90%	90%	–
